In PubChem BioAssay (NCI) one finds GI50 and TGI data, which are given here for 22 compounds.

What all share (experiment): inhibition of tumour cell growth, NCI panel, 48 h
Experiment [1] concerns DU-145 prostate.
For experiment [2], the system named is HCT-116 colon.
Experiment [3] has as its system M14 melanoma.
Experiment [4] has as its system LOX IMVI melanoma.
Experiment [5] relates to RPMI-8226 leukemia.
The test system of experiment [6] is COLO 205 colon.
Experiment [7] deals with NCI-H522 lung.
The subject of experiment [8] is KM12 colon.
Experiment [9] concerns TK-10 renal.
For experiment [10], the system named is CCRF-CEM leukemia.

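Method: 48-hour compound exposure of cells in 96-well plates, five concentrations, linear interpolation of endpoints. GI50 = concentration required for 50% inhibition of growth. TGI: concentration producing complete growth inhibition.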 Where only a bound is given, the exact number is not on record here.

Turning to `CCOC(=O)C(=Cc1cccc(Cl)c1)C(=O)OCC`, the GI50 in experiment [1] was 2.21 µM; in experiment [2] it was 1.82 µM; in [3] it was 2 µM; in experiment [4], 1.65 µM; in experiment [5], 2.1 µM; in experiment [6] it was 2.21 µM. The values for the GI50 in [7], in experiment [8] and in experiment [9] were 1.53 µM, 2.35 µM and 2.46 µM, respectively. Besides, the TGI in experiment [1] was found to be 5.4 µM; in experiment [2], 3.83 µM; in [3], 4.56 µM; in experiment [4], 3.12 µM; in experiment [5], 5.32 µM; in experiment [6] it was 4.42 µM. Also, the results for the TGI in experiment [7], in [8] and in experiment [9] were 3.21 µM, 5.8 µM and 6.08 µM, respectively.

Regarding `C=CCc1cccc(/C=N/NC(=O)CN2CCN(Cc3ccccc3)CC2)c1O`, the GI50 is 1.79 µM in [1]; 1.71 µM in experiment [2]; 1.84 µM in experiment [3]; 1.05 µM in experiment [4]; 1.47 µM in experiment [5]; 2.22 µM in experiment [6]. Further, the figures for the GI50 in experiment [10], in [8] and in experiment [9] were 0.656 µM, 2.56 µM and 0.925 µM, respectively. The TGI was 13.4 µM in experiment [1]; 13.8 µM in [2]; 13.3 µM in experiment [3]; 6.59 µM in experiment [4]; 12.7 µM in experiment [5]; 13.9 µM in experiment [6]. In addition, the TGI in experiment [10] is 7.78 µM; in experiment [8], 15 µM; in experiment [9], 15.1 µM.

Take `CCCCCCC[CH2][Sn]1([CH2]CCCCCCC)[O]C(=O)c2cccnc2[S]1`: the GI50 in experiment [2], in experiment [3], in experiment [4], in [5], in [6] and in [7] was greater than 100 µM each time. For the same compound, the GI50 in experiment [10], in experiment [8] and in experiment [9] was greater than 100 µM in each case. For the same compound, the TGI in [2], in [3], in experiment [4], in experiment [5], in [6] and in experiment [7] was greater than 100 µM throughout. The TGI in [10], in experiment [8] and in experiment [9] was greater than 100 µM in each case.

On to `COc1cc(-c2nn(-c3cccc(NC(=O)Nc4ccc(Cl)c(Cl)c4)c3)cc2-c2ccncc2)ccc1Cl`, for which the GI50 was 1.52 µM in experiment [1]; 1.21 µM in experiment [2]; 0.911 µM in [3]; 0.953 µM in experiment [4]; 0.388 µM in [5]; 0.937 µM in experiment [6]. For the same compound, the values for the GI50 in [7], in experiment [8] and in [9] were 0.811 µM, 0.811 µM and 1.43 µM, respectively. Further, the TGI in [1] is 34.2 µM; in experiment [2] it was greater than 50 µM; in experiment [3], 2.69 µM; in experiment [4], 2.62 µM; in [5], 3.26 µM; in [6] it was 1.72 µM. Besides, the TGI in experiment [7] stood at 3.1 µM; in experiment [8], 2.77 µM; in experiment [9] it was 40.9 µM.

On to `COc1ccc(-c2cc(-c3ccccc3)c(C#N)c(=O)n2C2OC(CO)C(O)C(O)C2O)cc1` (stereo not given), for which the TGI in [2], in [3], in [4], in [5], in experiment [6] and in experiment [7] was greater than 100 µM in each case. Also, the TGI in experiment [10], in [8] and in experiment [9] was greater than 100 µM in each case.

For `CC(=O)OC12c3ccccc3-c3ccccc3C1C1C(=O)N(C)C(=O)C12Cl` (stereo not given), the TGI in experiment [1], in experiment [3], in experiment [4], in experiment [5], in experiment [6] and in experiment [7] was greater than 10 µM in each case. The TGI in experiment [10], in [8] and in experiment [9] was greater than 10 µM each time.

For `COC(=O)[C@]1(C)CCCC2(C)C1CC[C@H]1C=C(C)[C@H]3CCC12C3` (stereo not given in full), the TGI in [2], in experiment [3], in [4], in [5], in [6] and in [7] was greater than 100 µM in each case. In addition, the TGI in [10], in experiment [8] and in experiment [9] was greater than 100 µM throughout.

On to `Nc1c(C(=O)Nc2cccc(Br)c2)sc2nc3c(cc12)C(=O)CCC3`, for which the GI50 is 0.426 µM in experiment [1]; 0.534 µM in [2]; 0.568 µM in experiment [3]; greater than 49.9 µM in experiment [5]; 0.401 µM in experiment [6]; 0.248 µM in [7]. In addition, the GI50 in experiment [10] is 0.393 µM; in [8] it was 0.349 µM; in [9], 13.9 µM. The TGI is greater than 61.6 µM in experiment [1]; greater than 100 µM in experiment [2]; greater than 100 µM in experiment [3]; greater than 100 µM in [5]; greater than 100 µM in experiment [10]; greater than 100 µM in experiment [8]. The compound further registered a TGI in experiment [9] greater than 100 µM.

For `CCOc1ccc2nc(S/C(=C/C=C(C#N)C#N)c3ccc(C)cc3)sc2c1`, the GI50 in experiment [1] was 40.5 µM; in experiment [2], 17.3 µM; in [3] it was 35.8 µM; in experiment [4], 9.87 µM; in [6] it was 25.8 µM; in experiment [7] it was 20.8 µM. Moreover, the GI50 is 2.05 µM in experiment [10], 35.9 µM in experiment [8] and 27.2 µM in experiment [9]. For the same compound, the TGI in experiment [1] is greater than 100 µM; in experiment [2], 31.6 µM; in experiment [3], greater than 100 µM; in experiment [4] it was 23.9 µM; in experiment [6], greater than 100 µM; in experiment [7], 49.3 µM. For the same compound, the TGI is 5.52 µM in experiment [10], greater than 100 µM in experiment [8] and 94.6 µM in experiment [9].

`O=C(CSc1nnc(-c2ccc(N=Cc3ccc(Cl)cc3)cc2)o1)Nc1ccc(Cl)cc1`: the TGI in experiment [2], in experiment [3], in [4], in experiment [5], in [6] and in experiment [7] was greater than 100 µM in each case. In addition, the TGI in [10], in experiment [8] and in experiment [9] was greater than 100 µM each time.

With `O=C(NC(=O)c1cn(CCNCCO)c(=O)[nH]c1=O)OCc1ccccc1`, the TGI in experiment [2], in [3], in experiment [4], in experiment [5], in [6] and in [7] was greater than 100 µM throughout. In addition, the TGI in experiment [10], in experiment [8] and in experiment [9] was greater than 100 µM each time.

In the case of `O=C(Nc1cc(Cl)ccc1Cl)c1cc2cccc(Cl)c2oc1=O`, the TGI in [2], in experiment [3], in experiment [4], in experiment [5], in experiment [6] and in experiment [7] was greater than 100 µM throughout. Moreover, the TGI in experiment [10], in [8] and in [9] was greater than 100 µM each time.

On to `N#Cc1c(-c2ccc(F)cc2)c(-c2ccc(F)cc2)nn(CCO)c1=O`, for which the TGI is 4.42 µM in experiment [1]; 7.04 µM in experiment [2]; greater than 100 µM in experiment [3]; greater than 47.6 µM in experiment [4]; greater than 100 µM in experiment [5]; 2.44 µM in experiment [6]. Besides, the values for the TGI in experiment [10], in experiment [8] and in [9] were 24.9 µM, 4.49 µM and greater than 100 µM, respectively.

Consider `O=c1[nH]cc(COCCO)c(=O)[nH]1`, for which the TGI in experiment [2], in experiment [3], in experiment [4], in experiment [5], in experiment [6] and in experiment [7] was greater than 100 µM in each case. The TGI in experiment [10], in experiment [8] and in experiment [9] was greater than 100 µM throughout.

For `COc1ccncc1C#Cc1cncc(C(=O)Nc2ccc(CN3CCN(C)CC3)c(C(F)(F)F)c2)c1`, the GI50 in [1] is 25.7 µM; in experiment [2], 6.72 µM; in [3], 10.1 µM; in experiment [4], 5.79 µM; in experiment [6], 11.2 µM; in experiment [7] it was 11.4 µM. The GI50 in [10] is 28.4 µM; in experiment [8], 0.326 µM; in [9] it was 47.1 µM. In addition, the TGI in experiment [1] was greater than 100 µM; in experiment [2], greater than 100 µM; in experiment [3], 39.6 µM; in [4] it was 25.7 µM; in [6], 64 µM; in experiment [7], 46 µM. Moreover, the TGI was greater than 100 µM in [10], 64.5 µM in [8] and greater than 100 µM in experiment [9].

As to `O=c1cc2oc3cc(O)c(O)cc3c(-c3ccccc3O)c-2cc1O`, the GI50 in [1] was 22.8 µM; in experiment [2] it was 3.81 µM; in experiment [3] it was 6.66 µM; in [4] it was 4.84 µM; in [6], 36.3 µM; in [10], 7.29 µM. Also, the GI50 was 30.7 µM in experiment [8] and 21.9 µM in experiment [9]. For the same compound, the TGI is greater than 100 µM in [1]; 21.9 µM in experiment [2]; 32.1 µM in experiment [3]; 34.2 µM in experiment [4]; greater than 100 µM in experiment [6]; greater than 100 µM in experiment [10]. Moreover, the TGI in experiment [8] and in experiment [9] was greater than 100 µM in each case.

With `O=C1[C@@H]2C3c4ccccc4C([C@@H]2C(=O)N1c1ccccc1)S3(=O)=O`, the TGI in experiment [2], in experiment [3], in experiment [4], in experiment [5], in [6] and in experiment [7] was greater than 100 µM each time. The TGI in [10], in experiment [8] and in [9] was greater than 100 µM each time.

With `O=C1c2ccccc2C2(O)c3cc4ccccc4cc3OC12O` (stereo not given), the TGI in experiment [2], in [3], in experiment [4], in [5], in experiment [6] and in [7] was greater than 100 µM each time. The TGI in experiment [10], in [8] and in experiment [9] was greater than 100 µM throughout.

In the case of `CC1=C2CCCC2=C/C(=N/Nc2ccc([N+](=O)[O-])cc2[N+](=O)[O-])CC1`, the TGI in [2], in [3], in experiment [4], in experiment [5], in [6] and in experiment [7] was greater than 100 µM each time. Also, the TGI in [10], in experiment [8] and in [9] was greater than 100 µM each time.

As for `Cc1ccc(/C=C/c2c(C(=O)/C=C/c3ccc(C(F)(F)F)cc3)c(C)nc3ccccc23)cc1`, the GI50 in [1] was 1.56 µM; in [2], 0.496 µM; in [4] it was 1.12 µM; in experiment [5] it was 0.46 µM; in experiment [6], 2.21 µM; in [7] it was 1.33 µM. Also, the GI50 was 0.411 µM in experiment [10], 2.06 µM in experiment [8] and 2.36 µM in experiment [9]. Also, the TGI is 2.9 µM in experiment [1]; 2.09 µM in experiment [2]; 2.33 µM in experiment [4]; 2.92 µM in experiment [5]; 5.29 µM in [6]; 4.35 µM in experiment [7]. In addition, the TGI in experiment [10] was greater than 100 µM; in experiment [8] it was 5.03 µM; in experiment [9], 3.9 µM.

Regarding `CC(=O)O[C@H]1CCC2[C@@H]3CCC4=C(O)c5nocc5C[C@]4(C)C3CC[C@@]21C` (stereo not given in full), the TGI in experiment [2], in experiment [3], in [4], in experiment [5], in experiment [6] and in experiment [7] was greater than 100 µM each time. Also, the TGI in experiment [10], in [8] and in [9] was greater than 100 µM each time.

Take `O=[N+]([O-])c1ccc(-n2nnc(C3=NCCN3)c2-c2ccc(Cl)cc2)cc1`: the TGI in experiment [2], in experiment [3], in [4], in [5], in experiment [6] and in experiment [7] was greater than 100 µM each time. In addition, the TGI in experiment [10], in [8] and in [9] was greater than 100 µM each time.
